Laboratory results reported in US20080182842A1, “L-alanine derivatives as a5beta1 antagonists” (ASTRAZENECA AB, priority 2007, published 2008).

Biological target: α5β1 integrin (Homo sapiens, UniProt P05556+P08648)
Test: In vitro binding assay (a): inhibition of binding of α5β1 integrin to fibronectin fragment Fn9-10 (Origen electrochemiluminescence)
Conditions: recombinant human α5β1 vs Fn9-10 ligand; geometric mean where tested more than once
From the text: (a) In Vitro Binding Assay
The assay determined the ability of compounds to inhibit binding of α5β1 integrin to a cognate ligand, a fragment of human fibronectin. The assay used Origen technology (IGEN International) to measure the compound activity. Briefly, α5β1 integrin was coated onto epoxy-paramagnetic beads (Dynal Biotech UK, Bromborough, Wirral, CH62 3QL, UK, Catalogue No 140.11) and biotinylated-fibronectin ligand was coupled to strepatividin labeled Tag-NHS-Ester (BioVeris Corporation, Witney, Oxfordshire, OX28 4GE, UK, Catalogue No 110034). The ruthenium-labeled tag emits an electrochemiluminescence signal upon stimulation which is detected by the Origen reader. Thus, interaction of integrin and ligand causes association of bead and tag, and the resulting electrochemiluminescence signal reflects the level of integrin interaction with fibronectin.
20 μg of recombinant human α5β1 was coated onto 4×10(7) epoxy-paramagnetic beads according to manufacturers instructions at 4° C. for 24 hours. Integrin coating and corresponding activity was subsequently measured for each batch but typically, 25 ng of coated protein was used per assay well.
A DNA fragment encoding the domains 9-10 (amino-acids 1325-1509) of human fibronectin (Swiss-Prot Accession No. P02751) was isolated from cDNA libraries using standard molecular biology and PCR cloning techniques. The cDNA fragment was sub-cloned into a pT73.3 expression vector containing a GST-epitope tag (developed at AstraZeneca; Bagnall et al., Protein Expression and Purification, 2003, 27: 1-11). Following expression in E. coli, the expressed protein, termed Fn9-10, was purified using the GST-tag using standard purification techniques. The recombinant Fn9-10 was subsequently biotinylated using a EZ-link Sulfo-NHS-LC-Biotinylation kit (Perbio Science UK Ltd., Cramlington, Northumberland, NE23 1WA, UK, Catalogue No. 21335) and made to give a final concentration of approximately 1 mg/ml. Tag-NHS-Ester was labeled with streptavidin by incubation at room temperature following manufacturers instructions and buffer-exchanged into PBS to give a concentration of 0.5 mg/ ml. Immediately prior to the assay, biotinylated-Fn9-10 and Streptavidin-labeled Tag were diluted in Assay Buffer to give a final concentrations of 0.6 ug/ml and 1.5 ug/ml respectively. The Fn9-10 and Tag solutions were then mixed together in equal volumes and incubated on ice for at least 30 minutes prior to the assay.
Test compounds were prepared as 10 mM stock solutions in DMSO (Sigma-Aldrich Company Ltd, Gillingham, Dorset SP8 4XT Catalogue No. 154938) and serially diluted with 4% DMSO to give a range of test concentrations at ×4 required final concentration. Aliquots (20 μl) of each compound dilution were placed into each well of a 384-well round bottomed polypropylene plate (Matrix Technologies, Wilmslow, Cheshire, SK9 3LP, Catalogue No. 4340 384). Each plate also contained control wells: maximum signal was created using wells containing 20 μl of 4% DMSO, and minimum signal corresponding to no binding was created using wells containing 20 μl of 80 mM EDTA (Sigma Catalogue No. E7889).
For the assay, 25 ng(20 ul) of a5b1-bead suspension and 40 μl of the Fn9-10/Tag pre-incubated solution were added to each well containing 20 μl of compound or control solution. Assay plates were then incubated at room temperature for a minimum of 6 hours before being analysed on an Origen plate reader. The minimum value was subtracted from all values, and the signal was plotted against compound concentration to generate IC50 data.
The data in the above table was generated in an assay substantially as described above in relation to Binding Assay (a). Some of the compounds shown in the table were tested more than once in the assay. For those compounds the IC50 value shown is the geometric mean of the measured IC50 values. […]

α5β1 integrin, sequence (P08648 42-894 limits assumed): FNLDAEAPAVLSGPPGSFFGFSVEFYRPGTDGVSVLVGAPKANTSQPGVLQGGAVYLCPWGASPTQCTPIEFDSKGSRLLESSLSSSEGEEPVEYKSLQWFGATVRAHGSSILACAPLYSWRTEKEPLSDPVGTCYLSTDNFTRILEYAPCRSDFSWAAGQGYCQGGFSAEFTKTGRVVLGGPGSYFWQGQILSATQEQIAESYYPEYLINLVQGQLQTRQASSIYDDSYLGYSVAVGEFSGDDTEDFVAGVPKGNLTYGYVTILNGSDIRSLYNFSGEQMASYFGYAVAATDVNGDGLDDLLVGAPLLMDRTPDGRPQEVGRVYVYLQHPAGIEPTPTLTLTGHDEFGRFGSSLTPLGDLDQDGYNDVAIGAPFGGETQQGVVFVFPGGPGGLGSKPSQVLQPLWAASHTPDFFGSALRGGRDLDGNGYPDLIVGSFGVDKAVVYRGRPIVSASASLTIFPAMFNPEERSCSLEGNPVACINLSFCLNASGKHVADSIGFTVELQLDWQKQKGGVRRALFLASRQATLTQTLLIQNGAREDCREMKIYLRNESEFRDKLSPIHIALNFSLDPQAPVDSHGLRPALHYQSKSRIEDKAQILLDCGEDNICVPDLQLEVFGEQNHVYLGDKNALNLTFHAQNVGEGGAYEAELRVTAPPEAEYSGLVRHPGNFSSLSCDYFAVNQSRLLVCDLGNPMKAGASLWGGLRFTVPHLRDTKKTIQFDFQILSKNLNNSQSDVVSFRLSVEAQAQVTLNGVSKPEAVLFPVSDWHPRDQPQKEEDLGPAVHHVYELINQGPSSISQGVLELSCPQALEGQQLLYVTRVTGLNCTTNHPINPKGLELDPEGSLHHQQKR
α5β1 integrin, sequence (P08648 895-1049 partner limits assumed): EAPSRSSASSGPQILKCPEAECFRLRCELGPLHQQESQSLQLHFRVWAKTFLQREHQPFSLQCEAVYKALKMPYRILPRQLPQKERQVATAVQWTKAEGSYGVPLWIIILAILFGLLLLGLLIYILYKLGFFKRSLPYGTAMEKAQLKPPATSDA
α5β1 integrin, sequence (P05556 21-798): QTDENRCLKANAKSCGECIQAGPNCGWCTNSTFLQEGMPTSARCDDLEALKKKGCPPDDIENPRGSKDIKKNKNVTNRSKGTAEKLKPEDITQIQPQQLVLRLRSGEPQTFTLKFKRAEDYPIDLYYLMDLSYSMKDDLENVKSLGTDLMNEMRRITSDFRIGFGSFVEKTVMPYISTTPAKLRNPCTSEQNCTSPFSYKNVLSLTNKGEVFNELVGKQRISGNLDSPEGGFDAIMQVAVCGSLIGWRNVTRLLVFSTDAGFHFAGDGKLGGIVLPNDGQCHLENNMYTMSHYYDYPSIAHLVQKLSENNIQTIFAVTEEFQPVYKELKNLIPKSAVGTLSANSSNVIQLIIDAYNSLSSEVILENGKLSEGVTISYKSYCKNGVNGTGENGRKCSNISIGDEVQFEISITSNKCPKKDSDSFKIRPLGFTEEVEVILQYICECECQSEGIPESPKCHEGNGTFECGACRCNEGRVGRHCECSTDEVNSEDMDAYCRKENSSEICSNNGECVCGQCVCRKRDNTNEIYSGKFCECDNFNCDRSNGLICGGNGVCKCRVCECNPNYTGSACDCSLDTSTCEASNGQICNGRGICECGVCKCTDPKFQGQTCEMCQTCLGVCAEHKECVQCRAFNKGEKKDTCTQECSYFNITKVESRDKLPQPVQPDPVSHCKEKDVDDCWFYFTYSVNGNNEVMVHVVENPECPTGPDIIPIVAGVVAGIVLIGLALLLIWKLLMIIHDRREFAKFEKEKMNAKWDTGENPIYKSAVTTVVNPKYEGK

| Compound | IC50 [nM] |
| --- | --- |
| CC1(C(=O)N[C@@H](Cc2ccc(OCCc3ccc4c(n3)NCCO4)cc2)C(=O)O)CCCCC1 [Example 5.1, O-[2-(3,4-dihydro-2H-pyrido[3,2-b][1,4]oxazin-6-yl)ethyl]-N-[(1-methylcyclohexyl)carbonyl]-L-tyrosine] | 11 |
| CNc1cccc(CCOc2ccc(C[C@H](NC(=O)C3(C)CCCCC3)C(=O)O)cc2)n1 [Example 1.1, O-{2-[6-(methylamino)pyridin-2-yl]ethyl}-N-[(1-methylcyclohexyl)carbonyl]-L-tyrosine] | 5 |
| CNc1cccc(CCOc2ccc(C[C@H](NC(=O)C3CCC3)C(=O)O)cc2)n1 [Example 1.17, N-(cyclobutylcarbonyl)-O-{2-[6-(methylamino)pyridin-2-yl]ethyl}-L-tyrosine] | 49 |
| CNc1cccc(CCOc2ccc(C[C@H](NC(=O)C3CCCCC3)C(=O)O)cc2)n1 [Example 1.15, N-(cyclohexylcarbonyl)-O-{2-[6-(methylamino)pyridin-2-yl]ethyl}-L-tyrosine] | 32 |
